Test results taken from US11779548B2, “Arylfluorosulfate compounds and methods” (THE SCRIPPS RESEARCH INSTITUTE, priority 2014, dated 2023).

Assays:
[1] = system: microtubule network in HT-29 cells; assay: Immunofluorescence microscopy of HT-29 microtubule disruption; type: cell-based; settings: HT-29, 24 h, anti-tubulin-FITC, confocal imaging; 25F 1 μM and 0.1 μM
Protocol: To assess the mechanism of fluorosulfate 25F, HT-29 cells were treated with 25F followed by staining with anti-tubulin-FITC antibody. […] In fact, glucuronidation of 25 on the phenol group by uridine 5-diphosphoglucuronosyl transferases (UGTs) has been previously identified as a mechanism of resistance evolved by HT-29 colon cancer cells and hepatocellular cancer cells.
After incubation at 37° C. for 24 hours, cells were treated with media containing DMSO (0.2%), 25 (1 μM, 0.1 μM) or 25F (1 μM, 0.1 μM, 0.01 μM) for 24 hours. Then cells were gently washed in PBS, fixed for 20 min with 4% paraformaldehyde in PBS and permeabilised in 0.5% Triton X-100™ surfactant. Following washes in PBS containing 0.1% Tween™ (PBST) surfactant, cells were blocked in 5% bovine serum albumin diluted in PBST. Then cells were incubated with mouse monoclonal anti-tublin-FITC antibody (DM1A) (1:100 in PBS) for 3 hours. After washing with PBST, cells were incubated with DAPI (1:2000) for 30 min and mounted in PBS for confocal analysis. Images were captured by Nikon™ spinning disk confocal microscopy. All images in each experiment were collected on the same day using identical parameters.

MCF-7 cells [2] = assay: Cancer cell growth inhibition assay; type: cell-based; settings: Homo sapiens, MCF7, read-out: IC50 MCF-7 Cells
Protocol: (§1) Experimental compounds were dissolved in DMSO at 500-fold of the desired final maximum test concentration. Then it was 10-fold serially diluted to other concentrations in DMSO. All aliquots were frozen prior to use.
(§2) Another same plate of cells was inoculated for the evaluation of time 0. […] And another plate of cancer cells was refreshed with medium containing either DMSO (0.2%, as control) or test compounds (1 or 1F) in seven different concentrations from 20 μM. After incubation for 72 hours, cell viabilities were evaluated by CellTiter-Glo™ assay to obtain Vcontrol and Vtest. The growth inhibition percentage is defined as (Vtest−V0)/(Vcontrol−V0)×100%. IC50 values were obtained from dose-response curves. All tests included 3 repeats.
(§3) Cancer cells were inoculated into a 96-well plate in 100 μL medium at a plating density of 3,000 cells/well. […] Then cells were incubated for 6 days with one change of medium containing test compounds on day 3, before cell viabilities were evaluated by CellTiter-Glo™ Assay to obtain Vcontrol and Vtest. […]
(§4) Another same plate of cells was inoculated for the evaluation of time 0. […] Then the viabilities of cancer cells for time 0 were evaluated by CellTiter-Glo™ assay to obtain V0. […] Then cells were incubation for 72 hours, before cell viabilities were evaluated by CellTiter-Glo™ assay to obtain Vcontrol and Vtest. […]

A549 cells [3] = assay: Cancer cell growth inhibition assay; type: cell-based; settings: Homo sapiens, A549, read-out: IC50 A549 Cells
Protocol: as §1, §2, §3, §4

MCF-7 cells [4] = assay: Two-dose cell viability assay (CellTiter-Glo); settings: MCF-7, 500 nM, 72 h, in situ generated product
Protocol: (§5) The cytotoxicity of fluorosulfation products 1F to 39F and their phenol precursors was assessed in cancer cell lines using a double-dose cell viability test. […] The difference between the cytotoxicity of a fluorosulfation product and that of its phenol precursor reflects the changes in compounds' anti-cancer activity after the SuFEx-based derivatization (FIG. 3, A). […] The corresponding phosphate of combretastatin A4 is a tumor vascular targeting agent, and the water-soluble prodrug of combretastatin A4.
(§6) 6C. Two-Dose Cell Viability Assay to Compare the Cytotoxicities of Fluorosulfation Products (1F to 39F) and Phenol Parents (1 to 39).
(§7) MCF-7 and A549 cancer cells were inoculated into 96-well plates in 100 μL medium at a plating density of 5,000 cells/well. After cell inoculation, the plates were incubated at 37° C. and 5% CO2. After 24 hours, all wells were refreshed with medium containing DMSO (0.2%, as vehicle control), phenols (20 μM or 500 nM) or in situ generated fluorosulfation products (20 μM or 500 nM). Then cancer cells were maintained at 37° C. and 5% CO2 for 72 hours before cell viability (Vcontrol, Vphenol and Vfluorosulfation product) were evaluated by CellTiter-Glo™ Assay following manual of protocol. […] The cytotoxicity difference between a fluorosulfation product and its phenol precursor is quantified as (Vphenol/Vcontrol×100%)−(Vfluorosulfation product/Vcontrol×100%).

A549 cells [5] = assay: Two-dose cell viability assay (CellTiter-Glo); settings: A549, 20 μM and 500 nM, 72 h
Protocol: as §5, §6, §7

[6] = system: A549, MCF-7, SKBR3 and HT-29 cells; assay: Cancer cell growth inhibition assay, comparison over the cell line panel; type: cell-based; settings: 20 μM and 2 μM, dose-response studies
Protocol: as §1, §2
as §2, with “Then the viabilities of cancer cells for time 0 were evaluated by CellTiter-Glo™ assay to obtain V0. Another” for “And another”, “(25” for “(1”, “25F)” for “1F)”, “7 to 9” for “seven”, “μM (2 μM for MCF-7 cells). Then cells were” for “μM. After”, “hours, before” for “hours,”

SKBR3 cells = assay: Cancer cell growth inhibition assay; type: cell-based; settings: Homo sapiens, SK-BR-3, 72 h, read-out: IC50 SKBR3 Cells
Protocol: as §1, §2
as §2, with “Then the viabilities of cancer cells for time 0 were evaluated by CellTiter-Glo™ assay to obtain V0. Another” for “And another”, “(25” for “(1”, “25F)” for “1F)”, “7 to 9” for “seven”, “μM (2 μM for MCF-7 cells). Then cells were” for “μM. After”, “hours, before” for “hours,”

HT-29 cells = assay: Cancer cell growth inhibition assay; type: cell-based
Protocol: as §1, §2
as §2, with “Then the viabilities of cancer cells for time 0 were evaluated by CellTiter-Glo™ assay to obtain V0. Another” for “And another”, “(25” for “(1”, “25F)” for “1F)”, “7 to 9” for “seven”, “μM (2 μM for MCF-7 cells). Then cells were” for “μM. After”, “hours, before” for “hours,”

COc1ccc(/C=C\c2cc(OC)c(OC)c(OC)c2)cc1OS(=O)(=O)F [25F, (Z)-2-Methoxy-5-(3,4,5-trimethoxystyryl)phenyl sulfurofluoridate]
microtubule structure of treated cells [1]: completely lost microtubule structure | IC50 (MCF-7 cells [2]): 15.6 nM | IC50 (A549 cells [3]): 113 nM | increase of cytotoxicity relative to phenol precursor (MCF-7 cells [4]): 8% | cytotoxicity compared with phenol precursor (A549 cells [5]): significantly stronger | activity to inhibit cells at high concentrations compared with parent drug 25 [6]: stronger activities | IC50 (SKBR3 cells): 1.8 nM | IC50 (HT-29 cells; Homo sapiens, HT-29, 72 h, read-out: IC50 HT-29 Cells): 70 nM | fold lower IC50 (increase in potency) versus compound 25 on HT-29 (HT-29 cells; drug resistant colon cancer cell line HT-29): 70 fold
